Among the data in PubChem BioAssay (NCI) are TGI and GI50 values, retold here.

Common to all, as to assay: DTP human tumour cell line panel, 48 h
In experiment [1] the test system is SK-MEL-5 melanoma.
The test system of experiment [2] is OVCAR-4 ovarian.
The test system of experiment [3] is NCI-H226 lung.
Experiment [4] concerns HT29 colon.
Experiment [5] relates to K-562 leukemia.
Experiment [6] concerns EKVX NSCLC.
Experiment [7] concerns HCT-15 colon.
For experiment [8], the system named is SF-295 CNS.
Experiment [9] deals with MALME-3M melanoma.
Experiment [10] has as its system HOP-92 NSCLC.

Molecules are shown by their SMILES.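 Test compounds were applied to cells in 96-well plates for 48 hours at 5 doses. GI50: concentration for 50% inhibition of growth. TGI: concentration producing complete growth inhibition.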

In general, TGI refers to the concentration at which net growth stops. High values mean less potent growth arrest, low ones more potent growth arrest. A word on the GI50: it is the concentration at which growth is held to half of that of the control.

In the case of `CC1(C)O[C@@H](CP(c2cccc3ccccc23)c2cccc3ccccc23)[C@H](CP(c2cccc3ccccc23)c2cccc3ccccc23)O1`, the TGI in experiment [1], in [2], in experiment [3], in experiment [4], in [5] and in experiment [6] was over 100 µM in each case. The TGI in [7] and in experiment [8] was over 100 µM each time.

Turning to `Cc1ccc2c(=O)c(C(=O)N(CCO)CCO)c[nH]c2n1`, the TGI in [1], in [2], in experiment [3], in [4], in [5] and in experiment [6] was over 100 µM in each case. Moreover, the TGI in [7], in experiment [9] and in experiment [8] was over 100 µM each time.

For the compound `O=C(NCCCCNCCCNC(=O)OCc1ccccc1)OCc1ccccc1`, the TGI was 87.3 µM in experiment [10]; 32.5 µM in experiment [1]; over 100 µM in experiment [2]; over 100 µM in experiment [3]; 37.7 µM in [4]; 80.7 µM in experiment [5]. In addition, the total growth inhibition concentration (TGI) in [6] is over 100 µM; in experiment [7], over 100 µM; in [8], 51.5 µM.

Regarding `Cc1nnc(CC#N)n1NC(=O)CC#N`, the TGI in experiment [10], in experiment [1], in experiment [4], in experiment [5], in experiment [6] and in experiment [7] was over 100 µM each time. The TGI in experiment [9] and in experiment [8] was over 100 µM each time.

As for `CN(CCN(C)C(=O)CCn1ccc(=O)[nH]c1=O)C(=O)CCn1ccc(=O)[nH]c1=O`, the TGI in experiment [1], in [2], in experiment [3], in experiment [4], in experiment [5] and in experiment [6] was over 100 µM throughout. The TGI in experiment [7], in experiment [9] and in [8] was over 100 µM throughout.

For the compound `COc1ccc(N2C(=O)C(N3C(=O)C=CC3=O)C2C=O)cc1` (centres undefined), the TGI in experiment [10], in experiment [1], in experiment [4], in experiment [5], in experiment [6] and in experiment [7] was over 100 µM each time. Besides, the TGI in [9] and in experiment [8] was over 100 µM each time.

In the case of `COC(=O)[C@@H]1O[C@]12[C@@H](CO[Si](C)(C)C(C)(C)C)O[C@@H](n1cc(C)c(=O)[nH]c1=O)[C@@H]2O[Si](C)(C)C(C)(C)C`, the TGI is 38.5 µM in experiment [1]; over 100 µM in [2]; 45.5 µM in [3]; 18.1 µM in [4]; 40.2 µM in [5]; 53.6 µM in experiment [6]. The TGI in experiment [7] was found to be 17.3 µM; in experiment [9], 43.4 µM; in [8], 49.7 µM.

As to `CC1(C)CC2(C)OC(=N)C1(C#N)C2(C#N)C#N` (centres undefined), the TGI in [10] was 10.5 µM; in [1], 21 µM; in [4] it was 13.4 µM; in experiment [5], 33.5 µM; in experiment [6], 19.4 µM; in experiment [7], 4.84 µM. In addition, the TGI in experiment [9] was determined as 31.4 µM; in [8], 31.5 µM.

Consider `CCOC(=O)c1c(-c2ccc(OC)c(O)c2)c(C#N)c(=S)n(C2OC(CO)C(O)C(O)C2O)c1-c1ccccc1` (centres undefined), for which the TGI in [1], in [2], in experiment [3], in experiment [4], in experiment [5] and in experiment [6] was over 100 µM each time. The TGI in [7] and in experiment [8] was over 100 µM each time.

As for `CCOC(=O)C1=C(C)N(c2ccc(C)cc2)C2(O)C=CC(=O)C3=C(O)c4ccccc4C(=O)C312` (centres undefined), the TGI is 45.4 µM in experiment [10]; 42.1 µM in [1]; 90.9 µM in experiment [2]; over 100 µM in [3]; 65.9 µM in experiment [4]; over 100 µM in experiment [6]. In addition, the TGI is over 100 µM in [7], 43.1 µM in experiment [9] and over 100 µM in experiment [8].

On to `c1cc2ccc1CNCCN1CCNCc3ccc(cc3)Oc3ccc(cc3)CNCCN(CCNCc3ccc(cc3)O2)CCNCc2ccc(cc2)Oc2ccc(cc2)CNCC1`, for which the GI50 is 0.0202 µM in [10]; 2.26 µM in experiment [1]; 1.79 µM in experiment [2]; 4.62 µM in [7]; 1.66 µM in experiment [9]; 1.76 µM in [8]. In addition, the TGI worked out at 0.0501 µM in experiment [10]; 5.19 µM in experiment [1]; 3.34 µM in [2]; 20.1 µM in experiment [7]; 3.13 µM in experiment [9]; 3.18 µM in experiment [8].

On to `CCC1CCC2c3c([nH]c4ccccc34)C3C(=O)N(c4ccc(OC)cc4)C(=O)C3C2C1` (centres undefined), for which the TGI in experiment [1] is over 100 µM; in [2], 36 µM; in experiment [3] it was over 100 µM; in experiment [4], over 100 µM; in experiment [5], 60.8 µM; in experiment [6], over 100 µM. In addition, the TGI is over 100 µM in [7] and 68.1 µM in [8].

With `CCOC(=O)c1cc(-c2ccn(C(C)=O)c2)c(-c2cc(C)co2)[nH]1`, the TGI in [1], in experiment [2], in experiment [3], in [5], in experiment [6] and in [7] was over 100 µM throughout. Further, the TGI in experiment [9] and in experiment [8] was over 100 µM throughout.

In the case of `CCOC(=O)N1C(=S)C(C(=O)OC)(C(=O)OC)N=C1C`, the TGI in experiment [10], in experiment [1], in experiment [2], in experiment [3], in [5] and in experiment [6] was over 100 µM in each case. Moreover, the TGI in experiment [7] and in [8] was over 100 µM each time.

`Cc1ccc(S(=O)(=O)N2CCN(CCO)CCN(S(=O)(=O)c3ccc(C)cc3)CCN(CCO)CC2)cc1`: the TGI was 66 µM in experiment [10]; 27.3 µM in experiment [1]; 37.6 µM in [2]; over 100 µM in experiment [3]; 26 µM in experiment [4]; 35.3 µM in experiment [5]. In addition, the TGI is 39.1 µM in experiment [6], 37.2 µM in experiment [7] and over 100 µM in experiment [8].

As to `C[n+]1c(-c2ccc(/C=N/Nc3ccnc(N/N=C/c4ccc(-c5cn6ccccc6[n+]5C)cc4)n3)cc2)cn2ccccc21`, the TGI in [1] is over 100 µM; in experiment [2], over 100 µM; in experiment [4], over 100 µM; in experiment [6], over 100 µM; in experiment [7], over 100 µM; in experiment [8] it was 79.6 µM.

As to `Cc1ccc([N+](=O)[O-])cc1NC(=O)C(=O)C1CCC2=C(Sc3ccccc3N2)C1=O` (centres undefined), the TGI in [10], in [1], in experiment [2], in experiment [3], in experiment [4] and in experiment [6] was over 100 µM in each case. For the same compound, the TGI in experiment [7] and in [8] was over 100 µM in each case.

In the case of `Cc1cccc(C(O)c2cccnc2)c1O` (centres undefined), the TGI in experiment [1], in [3], in experiment [4], in [5], in experiment [6] and in [7] was over 100 µM each time. Further, the TGI in [9] and in [8] was over 100 µM throughout.

Turning to `CC1(C)Oc2ccc3c(=O)c4ccccc4oc3c2C1C(=O)O` (centres undefined), the TGI in [1], in experiment [2], in experiment [3], in [4], in experiment [5] and in experiment [6] was over 100 µM each time. The TGI in experiment [9] and in [8] was over 100 µM throughout.

Regarding `CC1(C)CC(=O)C(=CN2C(=O)CNC2=S)C(=O)C1`, the TGI in experiment [10], in experiment [1], in experiment [2], in [3], in experiment [6] and in experiment [7] was over 100 µM throughout. The TGI in experiment [8] was over 100 µM.

Turning to `COc1ccc(NS(=O)c2cccc(C)c2)cc1` (centres undefined), the TGI in experiment [1] is 75 µM; in experiment [3], over 100 µM; in [4], over 100 µM; in experiment [5] it was over 100 µM; in [6] it was over 100 µM; in experiment [7], over 100 µM. Moreover, the TGI in [9] and in experiment [8] was over 100 µM in each case.

As for `Cc1cccc2c1C(=O)[C@@](C)([C@]1(C)Nc3cccc(C)c3C1=O)N2`, the TGI in experiment [1], in [2], in experiment [3], in experiment [4], in experiment [5] and in [6] was over 100 µM each time. Further, the TGI in experiment [7], in experiment [9] and in experiment [8] was over 100 µM in each case.

For `O=C(NC/C=C/Br)NC1CCNc2ccccc21` (centres undefined), the TGI in [1] was 37.7 µM; in experiment [2], over 100 µM; in [3], over 100 µM; in experiment [4] it was 31.2 µM; in experiment [5], over 100 µM; in [6], 92.6 µM. The values for the TGI in [7], in experiment [9] and in experiment [8] were over 100 µM, 77.9 µM and over 100 µM, respectively.

Turning to `C=C1C(=O)O[C@H]2C/C(C=O)=C\[C@H]3O[C@H]3/C(COC(=O)C(C)C)=C/CC12` (some centres undefined), the TGI was determined as 22.2 µM in experiment [1]; 51.1 µM in experiment [3]; 12.8 µM in experiment [4]; 10.4 µM in experiment [5]; 29.8 µM in experiment [6]; 9.43 µM in [7]. In addition, the TGI was determined as 24.2 µM in experiment [9] and 75.5 µM in experiment [8].

As to `CC(=O)O[C@H]1C(=O)[C@@]2(C)C(C(OC(=O)c3ccccc3)[C@]3(O)CC(OC(=O)C(O)C(NC(=O)c4ccccc4)c4ccc(C)cc4)C(C)=C1C3(C)C)[C@]1(OC(C)=O)CO[C@@H]1C[C@@H]2O` (some centres undefined), the TGI in experiment [10] is 11.3 µM; in [2], over 25 µM; in experiment [4], 0.0861 µM; in experiment [5] it was over 25 µM; in [6], over 25 µM; in experiment [7] it was 8.01 µM. The TGI in experiment [9] stood at 10.4 µM.

`CCCCCCCCCCCCCCCCNc1ccn(C2CC(OP(=O)(O)OCC3OC(n4cc(CC)c(=O)[nH]c4=O)CC3O)C(CO)O2)c(=O)n1` (centres undefined): the TGI in experiment [10] is over 100 µM; in [2], over 100 µM; in experiment [3] it was over 100 µM; in [4], 46.1 µM; in experiment [5], 44.9 µM; in [6], over 100 µM. The TGI in [7] is 72.5 µM; in [8], 34.5 µM.

As to `CN(C)C=Nc1nncc2n[nH]nc12`, the TGI in experiment [1], in experiment [3], in experiment [4], in experiment [5], in [6] and in [7] was over 100 µM each time. Also, the TGI in experiment [8] was over 100 µM.

Take `O=c1/c(=C/c2ccc(-c3ccc(Cl)cc3Cl)o2)sc2n1[C@@H](c1ccc3c(c1)OCO3)C=C(c1cc(F)c(Cl)cc1Cl)N=2`: the TGI was 95.5 µM in [10]; over 100 µM in [1]; over 100 µM in [2]; over 100 µM in experiment [3]; 74.7 µM in experiment [4]; over 100 µM in experiment [5]. Moreover, the TGI in [7], in [9] and in experiment [8] was over 100 µM throughout.

With `COC(=O)C1[C@H](C(=O)OC)C1(Br)CBr` (some centres undefined), the TGI in experiment [10], in experiment [1], in [2], in [3], in experiment [4] and in experiment [5] was over 100 µM in each case. In addition, the TGI in experiment [6], in experiment [7] and in experiment [8] was over 100 µM in each case.

Turning to `COc1cccc2c1[C@]1(O)C(O)CCCC21` (some centres undefined), the TGI in [1], in experiment [2], in [3], in experiment [4], in [5] and in experiment [7] was over 100 µM in each case. Moreover, the concentration for total growth inhibition (TGI) in [9] and in [8] was over 100 µM each time.
